In patent US8471063B2, “Michael systems as transglutaminase inhibitors” (Zedira GmbH, priority 2006, dated 2013):
Where two headings read alike, the source gives them in different places. *1 amine or outer side, *2 acyl side, *3 side chain or, on linkers, in order; H or OH if unused. Where a SMILES comes first, the peptide text is derived from it. [ ]: non-standard residue; d: D form. X3 = O=C([C@H](CC/C=C/[N+](=O)[O-])N[*:1])[*:2]; Phe(2,4-Cl2) = N[C@@H](Cc1ccc(Cl)cc1Cl)C(=O)O; X1 = CN(C)C(=O)/C=C/CC[C@H](N[*:1])C(=O)[*:2]; X4 = O=C([C@@H]1C(O)c2ccccc2CN1[*:1])[*:2]; hCit = NC(=O)NCCCC[C@H](N)C(=O)O; Aib = CC(C)(N)C(=O)O

Key:
Assay type in all cases: biochemical
TG7 = target: T1, TG7 (Homo sapiens, UniProt Q96PF1); assay: Transglutaminase inhibition, IC50 at TG7
T1 construct: His6 (N); made in house; host or cells: E. coli BL21 (DE3)
T1 sequence (Q96PF1 1-710): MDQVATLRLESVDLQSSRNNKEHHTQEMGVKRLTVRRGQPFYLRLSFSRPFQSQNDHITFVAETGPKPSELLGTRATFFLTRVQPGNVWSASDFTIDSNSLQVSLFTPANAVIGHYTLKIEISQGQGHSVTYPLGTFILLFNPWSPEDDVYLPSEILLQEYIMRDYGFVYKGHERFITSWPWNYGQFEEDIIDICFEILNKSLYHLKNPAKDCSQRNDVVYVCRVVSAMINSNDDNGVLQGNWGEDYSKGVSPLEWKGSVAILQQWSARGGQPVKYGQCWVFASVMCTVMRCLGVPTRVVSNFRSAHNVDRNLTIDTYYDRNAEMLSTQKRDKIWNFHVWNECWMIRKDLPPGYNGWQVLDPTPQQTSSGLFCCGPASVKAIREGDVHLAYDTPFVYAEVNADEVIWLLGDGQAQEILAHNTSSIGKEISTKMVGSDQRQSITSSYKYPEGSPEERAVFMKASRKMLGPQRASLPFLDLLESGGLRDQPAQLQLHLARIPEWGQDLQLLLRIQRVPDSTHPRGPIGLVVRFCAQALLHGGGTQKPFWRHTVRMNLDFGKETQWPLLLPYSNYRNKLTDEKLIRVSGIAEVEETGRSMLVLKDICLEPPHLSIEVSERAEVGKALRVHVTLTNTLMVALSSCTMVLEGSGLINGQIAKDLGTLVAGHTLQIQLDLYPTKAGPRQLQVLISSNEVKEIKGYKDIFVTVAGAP
Procedure: (§1) The genes encoding for TG6 and TG7 were amplified from TG6-cDNA and TG7-cDNA, respectively, with PCR according to standard procedures (both state-of-the-art according to U.S. Pat. No. 7,052,890). Through the primers used a NdeI restriction site and six histidine codons were inserted at the 5′ end and a BgIII restriction site (TG6) and a HindIII restriction site (TG7) at the 3′ end.
(§2) The Tg6 PCR product was treated with the restriction endonucleases NdeI and BgIII. In the NdeI and BamH I restricted vector pET 3a was inserted. The Tg7 PCR product was treated with the restriction endonucleases NdeI and HindIII. and in the likewise restricted vector pET 28b was inserted.
(§3) The E. coli strain BL21 (DE3) (Novagen, Darmstadt) was transformed with the obtained plasmids. A culture of one strain each was induced with IPTG and harvested. After cell disruption under high pressure homogenisation the disrupts were centrifuged and the supernatants were purified via metal ion affinity chromatography on HiTrap chelating HP columns (GE-Helathcare). The purified proteins TG6 and TG7 were analyzed by SDS-PAGE with Coomassie staining. All procedures used for the production of TG6 and TG7 are well known to the one skilled in the art.

TG6 = target: T2, TG6 (Homo sapiens, UniProt O95932); assay: Transglutaminase inhibition, IC50 at TG6
T2 construct: His6 (N); made in house; host or cells: E. coli BL21 (DE3)
T2 sequence (O95932 1-706): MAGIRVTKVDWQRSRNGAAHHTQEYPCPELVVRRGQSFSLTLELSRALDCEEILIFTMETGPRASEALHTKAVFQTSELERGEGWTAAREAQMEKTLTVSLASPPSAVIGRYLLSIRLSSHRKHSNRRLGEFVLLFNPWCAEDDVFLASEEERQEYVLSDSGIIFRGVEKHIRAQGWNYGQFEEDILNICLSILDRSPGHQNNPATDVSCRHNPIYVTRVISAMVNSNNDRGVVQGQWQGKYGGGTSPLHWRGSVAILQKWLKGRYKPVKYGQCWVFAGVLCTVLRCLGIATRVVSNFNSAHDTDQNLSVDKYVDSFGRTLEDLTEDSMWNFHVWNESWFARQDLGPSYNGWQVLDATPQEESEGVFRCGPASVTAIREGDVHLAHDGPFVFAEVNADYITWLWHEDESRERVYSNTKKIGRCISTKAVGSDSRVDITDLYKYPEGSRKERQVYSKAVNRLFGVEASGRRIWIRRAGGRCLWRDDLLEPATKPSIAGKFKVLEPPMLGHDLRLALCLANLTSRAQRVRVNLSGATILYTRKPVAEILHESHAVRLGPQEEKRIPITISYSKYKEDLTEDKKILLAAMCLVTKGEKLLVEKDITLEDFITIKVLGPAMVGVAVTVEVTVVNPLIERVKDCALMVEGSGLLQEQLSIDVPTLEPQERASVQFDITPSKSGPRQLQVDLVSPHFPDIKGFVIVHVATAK
Procedure: as §1, §2, §3

TG3 = target: T3, TG3 (Homo sapiens, UniProt Q08188); assay: Transglutaminase inhibition, IC50 at TG3
T3 sequence (Q08188 1-693): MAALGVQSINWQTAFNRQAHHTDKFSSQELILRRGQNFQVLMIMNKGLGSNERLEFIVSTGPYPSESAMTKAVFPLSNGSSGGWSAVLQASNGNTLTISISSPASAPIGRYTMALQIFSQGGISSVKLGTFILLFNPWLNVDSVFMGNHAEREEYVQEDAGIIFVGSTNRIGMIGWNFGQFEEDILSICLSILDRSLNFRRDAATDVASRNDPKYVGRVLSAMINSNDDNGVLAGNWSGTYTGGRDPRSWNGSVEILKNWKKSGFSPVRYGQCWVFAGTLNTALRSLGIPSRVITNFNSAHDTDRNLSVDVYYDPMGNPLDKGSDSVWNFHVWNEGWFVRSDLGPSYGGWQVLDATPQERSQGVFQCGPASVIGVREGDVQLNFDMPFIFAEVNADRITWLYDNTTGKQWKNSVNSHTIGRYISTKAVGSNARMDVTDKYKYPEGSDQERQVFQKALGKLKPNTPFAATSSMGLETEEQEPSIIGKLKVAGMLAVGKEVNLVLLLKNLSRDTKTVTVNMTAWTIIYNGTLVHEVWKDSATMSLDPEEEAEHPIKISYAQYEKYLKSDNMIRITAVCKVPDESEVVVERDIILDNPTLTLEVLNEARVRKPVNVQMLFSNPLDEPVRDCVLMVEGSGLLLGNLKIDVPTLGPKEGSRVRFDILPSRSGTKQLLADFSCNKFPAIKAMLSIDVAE

[1] = Table 2, read-out: IC50 value [TG7]
[2] = Table 2, read-out: IC50 value [TG6]
[3] = Table 2, read-out: IC50 value [TG3]

| IC50 (TG7; [1]) [µM] | IC50 (TG6; [2]) [µM] | IC50 (TG3; [3]) [µM] | Structure (SMILES) | IC50 (TG7) [µM] | IC50 (TG6) [µM] | IC50 (TG3) [µM] |
| --- | --- | --- | --- | --- | --- | --- |
|  |  |  | CC(=O)N[C@@H](CCl)C(=O)N1CSC[C@H]1C(=O)N[C@@H](CC/C=C/C(=O)c1ccc([N+](=O)[O-])cc1)C(=O)N[C@@H](CCC(N)=O)C(=O)N[C@@H](CC1CCCCC1)C(=O)Nc1ccc(C(=O)O)cc1 [Compound 3.2.16] | 3.4 | 2 | 48 |
| 46 | 4 | > 100 | CC[C@H](C)[C@H](NC(=O)[C@H](CCC(N)=O)NC(=O)[C@H](CC/C=C/C(=O)N(C)C)NC(=O)[C@H](Cc1ccc(Cl)cc1Cl)NC(=O)C(C)(C)NC(C)=O)C(=O)N[C@H](C(=O)O)C(C)C [Compound 3.2.13] (Ac-[Aib][Phe(2,4-Cl2)][X1]QIV-OH) |  |  |  |
| > 100 | > 100 | 2.3 | CC(=O)N[C@@H](CCC(N)=O)C(=O)N[C@@H](CCC(N)=O)C(=O)N[C@@H](CC/C=C/[N+](=O)[O-])C(=O)N[C@H](C(=O)N[C@@H](CCCCNC(N)=O)C(=O)N[C@@H](CCC(N)=O)C(=O)N1Cc2ccccc2C(O)[C@H]1C(N)=O)C(C)C (stereo partly drawn) [Compound 3.2.14] (Ac-QQ[X3]V[hCit]Q[X4]-NH2) |  |  |  |
